Reference: ChEMBL document CHEMBL3045198, “Insecticidal Activity and Selective Toxicity of Chloronicotinyl Compounds Having Thiomethyl Groups” (J Pestic Sci, 2000)
In brackets after ≈: the same amount, converted by molar mass.

Columns and labels:
Laodelphax striatellus [1] = experiment: Insecticidal activity against larvae of Laodelphax striatella (small brown planthopper) fed with compound solution dipped rice seedling measured after 5 days by test tube method; format: functional; conditions: 120 h
Laodelphax striatellus [2] = experiment: Insecticidal activity against adult Laodelphax striatella (small brown planthopper) at 0.0005 ug topically applied measured after 24 hr; format: functional
Myzus persicae = experiment: Insecticidal activity against larvae of Myzus persicae (green peach aphid) infested eggplant petiole treated with compound solution measured after 5 days; format: functional; conditions: 120 h
Laodelphax striatellus [3] = experiment: Insecticidal activity against adult Laodelphax striatella (small brown planthopper) at 0.0005 ug topically applied measured after 3 hr; format: functional
[4] = Acute toxicity in po dosed Mus musculus ICR (mouse) assessed as mortality measured after 14 days; format: organism-based; conditions: in vivo
[5] = Displacement of [3H]alpha-bungarotoxin from nicotinic acetylcholine receptor in Apis mellifera (honey bee) head membrane
Laodelphax striatellus [6] = experiment: Insecticidal activity against Laodelphax striatella (small brown planthopper) at 12.5 ppm in presence of piperonyl butoxide; format: functional
Laodelphax striatellus [7] = experiment: Insecticidal activity against Laodelphax striatella (small brown planthopper) at 3.1 ppm in presence of piperonyl butoxide; format: functional
Laodelphax striatellus [8] = experiment: Insecticidal activity against Laodelphax striatella (small brown planthopper) at 3.1 ppm in presence of triphenyl phosphate; format: functional
Laodelphax striatellus [9] = experiment: Insecticidal activity against Laodelphax striatella (small brown planthopper) at 12.5 ppm in presence of triphenyl phosphate; format: functional
Laodelphax striatellus [10] = experiment: Insecticidal activity against Laodelphax striatella (small brown planthopper) at 3.1 ppm; format: functional
Laodelphax striatellus [11] = experiment: Insecticidal activity against Laodelphax striatella (small brown planthopper) at 0.0005 ug topically applied measured after 72 hr; format: functional
Laodelphax striatellus [12] = experiment: Insecticidal activity against Laodelphax striatella (small brown planthopper) at 0.0005 ug topically applied measured after 48 hr; format: functional
Laodelphax striatellus [13] = experiment: Insecticidal activity against Laodelphax striatella (small brown planthopper) at 12.5 ppm; format: functional
Laodelphax striatellus [14] = experiment: Insecticidal activity against Laodelphax striatella (small brown planthopper) at 3.1 ppm in presence of diethyl maleate; format: functional
Laodelphax striatellus [15] = experiment: Insecticidal activity against Laodelphax striatella (small brown planthopper) at 12.5 ppm in presence of diethyl maleate; format: functional

Compound | LC50 (Laodelphax striatellus [1]) [µg/mL] | LC50 (Myzus persicae) [µg/mL] | also measured
O=[N+]([O-])/C=C1\NCCN1Cc1ccc(Cl)nc1 | 0.3 (≈ 1.18 µM) | 0.09 (≈ 0.353 µM) | mortality (Laodelphax striatellus [2]): 100%; mortality (Laodelphax striatellus [3]): 70%; LD50 at 336 h [4]: < 30 mg/kg; IC50 [5]: 0.11 µM
C[Si](C)(CSC/C(=C1/NCCN1Cc1ccc(Cl)nc1)[N+](=O)[O-])c1ccccc1 | 0.1 (≈ 0.223 µM) | 0.25 (≈ 0.557 µM) | 
O=C(SC/C(=C1/NCCN1Cc1ccc(Cl)nc1)[N+](=O)[O-])c1ccccc1 | 6.3 (≈ 15.6 µM) | 1.2 (≈ 2.96 µM) | 
CC(SC/C(=C1/NCCN1Cc1ccc(Cl)nc1)[N+](=O)[O-])c1ccc(Cl)cc1 (stereo not drawn) | 1 (≈ 2.28 µM) | 0.2 (≈ 0.455 µM) | 
O=[N+]([O-])/C(CSCc1ccc(Cl)cc1)=C1\NCCN1Cc1ccc(Cl)nc1 | 0.14 (≈ 0.329 µM) | 0.8 (≈ 1.88 µM) | 
O=[N+]([O-])/C(CSCc1ccccc1)=C1\NCCN1Cc1ccc(Cl)nc1 | 0.36 (≈ 0.921 µM) | 0.11 (≈ 0.281 µM) | 
CCOC(=O)CSC/C(=C1/NCCN1Cc1ccc(Cl)nc1)[N+](=O)[O-] | 0.3 (≈ 0.775 µM) | 0.1 (≈ 0.258 µM) | 
O=[N+]([O-])/C(CSc1ccccc1)=C1\NCCN1Cc1ccc(Cl)nc1 | 0.11 (≈ 0.292 µM) | 0.34 (≈ 0.902 µM) | 
O=[N+]([O-])/C(CSCCCF)=C1\NCCN1Cc1ccc(Cl)nc1 | 0.14 (≈ 0.388 µM) | 0.2 (≈ 0.554 µM) | 
CC#CCSC/C(=C1/NCCN1Cc1ccc(Cl)nc1)[N+](=O)[O-] | 0.3 (≈ 0.85 µM) | 0.25 (≈ 0.709 µM) | 
C=C(C)CSC/C(=C1/NCCN1Cc1ccc(Cl)nc1)[N+](=O)[O-] | < 0.05 | 0.15 (≈ 0.423 µM) | 
C#CCSC/C(=C1/NCCN1Cc1ccc(Cl)nc1)[N+](=O)[O-] | < 0.05 | 0.22 (≈ 0.649 µM) | 
C=CCSC/C(=C1/NCCN1Cc1ccc(Cl)nc1)[N+](=O)[O-] | 0.14 (≈ 0.411 µM) | 0.1 (≈ 0.293 µM) | mortality at 12.5 ppm (Laodelphax striatellus [6]): 100%; mortality at 3.1 ppm (Laodelphax striatellus [7]): 100%; mortality at 3.1 ppm (Laodelphax striatellus [8]): 100%; mortality (Laodelphax striatellus [2]): 30%; mortality at 12.5 ppm (Laodelphax striatellus [9]): 100%; mortality at 3.1 ppm (Laodelphax striatellus [10]): 100%; mortality (Laodelphax striatellus [11]): 100%; mortality (Laodelphax striatellus [12]): 80%; mortality at 12.5 ppm (Laodelphax striatellus [13]): 100%; mortality at 3.1 ppm (Laodelphax striatellus [14]): 30%; mortality (Laodelphax striatellus [3]): 0%; mortality at 12.5 ppm (Laodelphax striatellus [15]): 80%; LD50 at 336 h [4]: > 1000 mg/kg; IC50 [5]: 20.4 µM
CC(C)(C)SC/C(=C1/NCCN1Cc1ccc(Cl)nc1)[N+](=O)[O-] | 0.43 (≈ 1.2 µM) | 0.2 (≈ 0.56 µM) | 
CCSC/C(=C1/NCCN1Cc1ccc(Cl)nc1)[N+](=O)[O-] | 0.41 (≈ 1.25 µM) | 0.18 (≈ 0.547 µM) | 
